According to publication PMC4595804, “A strategy to discover decoy chemokine ligands with an anti-inflammatory activity” (Scientific Reports, 2015):
Read-outs that look alike come from different tables or passages of the source.

Columns and labels:
[1] = target: T1, COX2 (Homo sapiens, UniProt P35354); experiment: COX2 mediated PGE2 release in LPS-treated primary monocytes; type: cell-based; conditions: 100 µM, monocytes + LPS + arachidonic acid
T1 construct: endogenous in cells; host or cells: primary human monocytes treated with LPS
Procedure: the wound closure was determined as the difference between wound width at times 0 and 72h. This experiment was repeated three times.
Human primary monocytes were isolated from buffy coats of healthy human blood donors and seeded in 24-well plates (500,000 cells/ml in 1ml) for COX-1/2 activity or 96-well plates for cell viability experiments.
Cells were seeded in 96 well plates (5,000 cells/well in 200µl) for cytotoxicity testing (Alamar […]
doses). After 24h, cytotoxicity was evaluated in the wells using the Alamar Blue method. NaF (250µg/ml) was used as a control in this experiment.
Cyclooxygenase (COX) activity
COX1 mediated prostaglandin E2 (PGE2) release. Monocytes were treated with arachidonic […]
were then collected for the determination of PGE2 by enzyme immunoassay (EIA) […]
COX2 mediated prostaglandin E2 (PGE2) release. Monocytes were incubated with LPS (10U/ml) for 24h to induce COX2 protein synthesis. After renewal of medium (serum free), […]
before AA treatment. The activity of COX2 was determined by measuring PGE2 (Cayman) in the supernatants by EIA. Aspirin (10µM) and diclofenac (10µM) were used as control […]
NaF (250µg/ml) was used as a control (relative light unit, r.l.u). (c) Monocytes were treated […]
GPN136 (grey bars). The activity of COX1 was determined by measuring prostaglandin E2 (PGE2). […]
of COX2 was determined by measuring PGE2. […]

[2] = target: T2, CCL22 (Homo sapiens, UniProt O00626); experiment: Tryptophan fluorescence assay on CCL22; type: binding
T2 construct: codes for the mature CCL17 or CCL22 with an N-terminal thioredoxin-hexahistidin (TRX- (His)6) tag; thioredoxin (TRX) (N, cleaved yes); (His)6 (N, cleaved yes); made in house; host or cells: E. coli BL21 (DE3)
T2 sequence (O00626 25-93): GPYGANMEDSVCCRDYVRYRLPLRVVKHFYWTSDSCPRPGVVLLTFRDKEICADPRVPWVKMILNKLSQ
Procedure: Fluorescence measurements were performed on a spectrofluorometer (JobinYvon/Spex) in a quartz microcuvette at 20 °C. […] The fluorescence emission spectra were corrected by subtracting the emission scan of the compounds alone and data analysis was carried out with fluorescence intensities detected at 340 nm.

[3] = target: T2, CCL22; experiment: CCL22-induced EGFP-CCR4 receptor internalization (flow cytometry); type: cell-based; conditions: 100 nM CCL22, 30 min, 0.03–3 μM compound; read-out: half-maximal efficiency, reduction of CCL22-induced CCR4 internalization
Procedure: Figure 6 (a) Selectivity of CCL17 and CCL22 neutraligands towards 10 chemokines according to the “neutraligand protocol”. […] Each column represents the mean (block) ± SD (bars) of n = 3 experiments performed in triplicate. *p < 0.05; **p < 0.01; ***p < 0.005 as compared to chemokine + DMSO. (b) Chemokine neutraligands inhibited CCR4 endocytosis induced by CCL22 or CCL17. EGFP-CCR4^+ HEK cells were incubated for 30 min with DMSO or chemokine (100 nM CCL22 or CCL17) in the presence or absence of test compounds. […] Cell surface EGFP-tagged CCR4 receptors were measured by EGFP antibody labeling and flow cytometry analysis. CCR4 internalization was expressed as a percentage of total receptor surface expression calculated using control cells incubated with DMSO (100%). Each column represents the mean (block) ± SD (bars) of n = 3 experiments performed in triplicate. *p < 0.05; **p < 0.01; ***p < 0.005 as compared to chemokine alone. (c,d) Inhibition of CCL17 and CCL22- induced CCR4^+HUT78 T cell chemotaxis by neutraligands. […] The number of migrating cells in the presence of chemokine and compounds were expressed as the corresponding percentages. Results were analyzed by fitting the experimental curves (% of migrating cells vs log compound concentration) using the Kaleidagraph software program, and the corresponding IC50 values were calculated. […]

T1 sequence (P35354 18-604): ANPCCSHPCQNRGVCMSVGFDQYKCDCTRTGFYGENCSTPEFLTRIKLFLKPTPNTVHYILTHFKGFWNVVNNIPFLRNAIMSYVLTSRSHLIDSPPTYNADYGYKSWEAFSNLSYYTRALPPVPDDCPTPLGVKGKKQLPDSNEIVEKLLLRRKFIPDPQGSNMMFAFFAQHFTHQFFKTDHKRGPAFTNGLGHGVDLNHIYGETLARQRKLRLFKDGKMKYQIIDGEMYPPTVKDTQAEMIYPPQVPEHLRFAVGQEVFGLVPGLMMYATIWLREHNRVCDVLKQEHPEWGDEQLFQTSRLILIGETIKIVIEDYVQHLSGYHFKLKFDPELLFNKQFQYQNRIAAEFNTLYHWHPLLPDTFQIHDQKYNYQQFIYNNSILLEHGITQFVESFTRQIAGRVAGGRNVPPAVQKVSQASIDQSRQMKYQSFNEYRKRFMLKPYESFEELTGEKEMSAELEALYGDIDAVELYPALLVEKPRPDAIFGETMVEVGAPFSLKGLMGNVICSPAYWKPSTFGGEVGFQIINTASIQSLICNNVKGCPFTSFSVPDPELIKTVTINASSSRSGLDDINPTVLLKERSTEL

Structure (SMILES) | effect on COX2 activity (PGE2) [1] | Kd ([2]; 1.5 μM CCL22, tryptophan fluorescence at 340 nm, estimated, read-out: KD, high-affinity binding site class, on CCL22) [µM] | Kd ([2]; […] CCL22, tryptophan fluorescence at 340 nm, read-out: KD, low-affinity binding site class, on CCL22) [µM] | IC50 [3] [µM]
CC(C)=CCn1cnc2c1c(=O)n(C)c(=O)n2C [GPN279, 1,3-dimethyl-7-(3-methylbut-2-enyl)-1H-purine-2,6(3H, 7H)-dione] | no effect |  |  | 
O=C(OCC(O)CO)c1ccccc1O (stereo not shown) [GPN136, 2,3-dihydroxypropyl 2-hydroxybenzoate] |  | < 0.05 | 53 | ~0.1
